System: spontaneously hypertensive rats (SHR Okamoto)
Experiment: Radiotelemetric measurement of blood pressure on conscious spontaneously hypertensive rats
Format: in vivo, rat
Text: B-3. Radiotelemetric Measurement of Blood Pressure on Conscious Spontaneously Hypertensive Rats
A commercially available telemetry system from DATA SCIENCES INTERNATIONAL DSI, USA, is employed for the blood pressure measurement on conscious rats described below.
The system consists of 3 main components: • implantable transmitters (Physiotel® telemetry transmitter) • receivers (Physiotel® receiver) which are linked via a multiplexer (DSI Data Exchange Matrix) to a • data acquisition computer.
The telemetry system makes it possible to continuously record blood pressure, heart rate and body motion of conscious animals in their usual habitat.
The investigations are carried out on adult female spontaneously hypertensive rats (SHR Okamoto) with a body weight of >200 g. SHR/NCrl from the Okamoto Kyoto School of Medicine, 1963 were a cross of male Wistar Kyoto rats with highly elevated blood pressure and female rats having a slightly elevated blood pressure and at F13 handed over to the U.S. National Institutes of Health.
Unless indicated otherwise, the substances to be investigated are administered orally by gavage in each case to a group of animals (n=6). The test substances are dissolved in suitable solvent mixtures, or suspended in 0.5% strength Tylose, appropriate for an administration volume of 2 ml/kg of body weight.
In the standard procedure, the following are measured for 10-second periods in each case: • systolic blood pressure (SBP) • diastolic blood pressure (DBP) • mean arterial pressure (MAP) • heart rate (HR) • activity (ACT).
The acquisition of measurements is repeated under computer control at 5-minute intervals. The source data obtained as absolute value are corrected in the diagram with the currently measured barometric pressure (Ambient Pressure Reference Monitor; APR-1) and stored as individual data. Further technical details are given in the extensive documentation from the manufacturing company (DSI).
Unless indicated otherwise, the test substances are administered at 9.00 am on the day of the experiment. Following the administration, the parameters described above are measured over 24 hours.
After the end of the experiment, the acquired individual data are sorted using the analysis software (DATAQUEST™ A.R.T.™ ANALYSIS). The blank value is assumed to be the time 2 hours before administration, and so the selected data set encompasses the period from 7.00 am on the day of the experiment to 9.00 am the following day.
The data are smoothed over a presettable time by determination of the average (30-minute average) and transferred as a text file to a storage medium. The measured values presorted and compressed in this way are transferred into Excel templates and tabulated. For each day of the experiment, the data obtained are stored in a dedicated file bearing the number of the experiment. Results and test protocols are filed sorted by numbers.

## C[C@@]1(C(F)(F)F)C(=O)Nc2nc(-c3nn(Cc4ncccc4F)c4ncc(F)cc34)nc(NCCC(F)(F)F)c21 (single isomer, unassigned) [Example 1-1]
0.03 mg/kg, 0 hours after substance administration
  mean blood pressure: 148.8 mmHg
0.03 mg/kg, 1 hours after substance administration
  mean blood pressure: 133.5 mmHg
0.03 mg/kg, 2 hours after substance administration
  mean blood pressure: 127.3 mmHg
0.03 mg/kg, 3 hours after substance administration
  mean blood pressure: 128.8 mmHg
0.03 mg/kg, 4 hours after substance administration
  mean blood pressure: 132.3 mmHg
0.03 mg/kg, 5 hours after substance administration
  mean blood pressure: 126.0 mmHg
0.03 mg/kg, 6 hours after substance administration
  mean blood pressure: 124.5 mmHg
0.03 mg/kg, 7 hours after substance administration
  mean blood pressure: 138.8 mmHg
0.03 mg/kg, 8 hours after substance administration
  mean blood pressure: 143.8 mmHg
0.03 mg/kg, 9 hours after substance administration
  mean blood pressure: 136.5 mmHg
0.03 mg/kg, 10 hours after substance administration
  mean blood pressure: 143.8 mmHg
0.03 mg/kg, 11 hours after substance administration
  mean blood pressure: 141.7 mmHg
0.03 mg/kg, 12 hours after substance administration
  mean blood pressure: 141.7 mmHg
0.03 mg/kg, 13 hours after substance administration
  mean blood pressure: 150.5 mmHg
0.03 mg/kg, 14 hours after substance administration
  mean blood pressure: 150.8 mmHg
0.03 mg/kg, 15 hours after substance administration
  mean blood pressure: 153.8 mmHg
0.03 mg/kg, 16 hours after substance administration
  mean blood pressure: 145.7 mmHg
0.03 mg/kg, 17 hours after substance administration
  mean blood pressure: 155.3 mmHg
0.03 mg/kg, 18 hours after substance administration
  mean blood pressure: 151.2 mmHg
0.03 mg/kg, 19 hours after substance administration
  mean blood pressure: 146.3 mmHg
0.03 mg/kg, 20 hours after substance administration
  mean blood pressure: 140.2 mmHg
0.03 mg/kg, 21 hours after substance administration
  mean blood pressure: 142.2 mmHg
0.03 mg/kg, 22 hours after substance administration
  mean blood pressure: 142.8 mmHg
0.03 mg/kg, 23 hours after substance administration
  mean blood pressure: 143.0 mmHg
0.03 mg/kg, 24 hours after substance administration
  mean blood pressure: 143.2 mmHg
0.3 mg/kg p.o., 0 hours after substance administration
  mean blood pressure: 138.7 mmHg
0.3 mg/kg p.o., 1 hours after substance administration
  mean blood pressure: 116.3 mmHg
0.3 mg/kg p.o., 2 hours after substance administration
  mean blood pressure: 106.8 mmHg
0.3 mg/kg p.o., 3 hours after substance administration
  mean blood pressure: 107.2 mmHg
0.3 mg/kg p.o., 4 hours after substance administration
  mean blood pressure: 105.5 mmHg
0.3 mg/kg p.o., 5 hours after substance administration
  mean blood pressure: 106.2 mmHg
0.3 mg/kg p.o., 6 hours after substance administration
  mean blood pressure: 106.8 mmHg
0.3 mg/kg p.o., 7 hours after substance administration
  mean blood pressure: 101.7 mmHg
0.3 mg/kg p.o., 8 hours after substance administration
  mean blood pressure: 111.3 mmHg
0.3 mg/kg p.o., 9 hours after substance administration
  mean blood pressure: 109.0 mmHg
0.3 mg/kg p.o., 10 hours after substance administration
  mean blood pressure: 113.3 mmHg
0.3 mg/kg p.o., 11 hours after substance administration
  mean blood pressure: 114.8 mmHg
0.3 mg/kg p.o., 12 hours after substance administration
  mean blood pressure: 112.0 mmHg
0.3 mg/kg p.o., 13 hours after substance administration
  mean blood pressure: 117.2 mmHg
0.3 mg/kg p.o., 14 hours after substance administration
  mean blood pressure: 115.7 mmHg
0.3 mg/kg p.o., 15 hours after substance administration
  mean blood pressure: 117.8 mmHg
0.3 mg/kg p.o., 16 hours after substance administration
  mean blood pressure: 111.5 mmHg
0.3 mg/kg p.o., 17 hours after substance administration
  mean blood pressure: 121.7 mmHg
0.3 mg/kg p.o., 18 hours after substance administration
  mean blood pressure: 132.3 mmHg
0.3 mg/kg p.o., 19 hours after substance administration
  mean blood pressure: 117.0 mmHg
0.3 mg/kg p.o., 20 hours after substance administration
  mean blood pressure: 110.7 mmHg
0.3 mg/kg p.o., 21 hours after substance administration
  mean blood pressure: 124.0 mmHg
0.3 mg/kg p.o., 22 hours after substance administration
  mean blood pressure: 125.5 mmHg
0.3 mg/kg p.o., 23 hours after substance administration
  mean blood pressure: 139.0 mmHg
0.3 mg/kg p.o., 24 hours after substance administration
  mean blood pressure: 150.5 mmHg

Source: US9266871B2, “Trifluoromethyl-substituted fused pyrimidines and their use” (BAYER PHARMA AKTIENGESELLSCHAFT, priority 2013, dated 2016)
